Experimental data taken from PubChem BioAssay (NCI).
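Cultured in 96-well plates, cells were exposed to test compound for 48 hours across five concentrations. Here, GI50 denotes the concentration required for 50% inhibition of growth. TGI: total growth inhibition.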

Columns and labels:
Experiment in all cases: NCI anticancer screen, dose series, 48 h
[1] = system: SN12C renal
[2] = system: IGROV1 ovarian
[3] = system: HOP-92 NSCLC
[4] = system: K-562 leukemia
[5] = system: SK-MEL-28 melanoma
[6] = system: NCI-H23 lung
[7] = system: HCC-2998 colon
[8] = system: COLO 205 colon
[9] = system: SF-268 CNS
[10] = system: NCI-H226 lung
[11] = system: OVCAR-3 ovarian
[12] = system: LOX IMVI melanoma
[13] = system: SK-MEL-2 melanoma
[14] = system: MDA-MB-231 breast
[15] = system: KM12 colon
[16] = system: SK-MEL-5 melanoma
[17] = system: UO-31 renal
[18] = system: SR leukemia
[19] = system: HL-60(TB) leukemia
[20] = system: DU-145 prostate
[21] = system: SW-620 colon
[22] = system: MOLT-4 leukemia
[23] = system: CAKI-1 renal
[24] = system: NCI/ADR-RES ovarian
[25] = system: HOP-62 NSCLC
[26] = system: T-47D breast
[27] = system: OVCAR-5 ovarian
[28] = system: MCF7 breast
[29] = system: NCI-H522 lung

Q: What does the source list for `Cn1cc(-c2nn3cc(-c4ccncc4)nc3s2)c2cc(Cl)ccc21`?
A: TGI [1]: 11.2 µM; GI50 [2]: 2.12 µM; TGI [2]: 17.2 µM; GI50 [3]: 1.61 µM; TGI [3]: 5.3 µM; GI50 [4]: 2.15 µM; TGI [4]: 5.3 µM; GI50 [5]: 2 µM; TGI [5]: 3.77 µM; GI50 [6]: 5.38 µM; TGI [6]: 25.4 µM; GI50 [7]: 3.64 µM; TGI [7]: 10.1 µM; GI50 [8]: 3.39 µM; TGI [8]: 9.2 µM; GI50 [9]: 6.32 µM; TGI [9]: 24.4 µM; GI50 [10]: 4.86 µM; TGI [10]: 26.1 µM; GI50 [11]: 5.8 µM; TGI [11]: 27.1 µM; GI50 [12]: 2.64 µM; TGI [12]: 9.26 µM; GI50 [13]: 5.41 µM; TGI [13]: 14 µM; GI50 [14]: 1.58 µM; TGI [14]: 3.24 µM; GI50 [15]: 12.5 µM; TGI [15]: 37.5 µM; GI50 [16]: 3.02 µM; TGI [16]: 8.25 µM; GI50 [17]: 4.03 µM; TGI [17]: 22.6 µM; GI50 [18]: 1.69 µM; TGI [18]: 4.61 µM; GI50 [19]: 1.54 µM; TGI [19]: 3.26 µM; GI50 [20]: 6.23 µM; TGI [20]: 17.4 µM; GI50 [21]: 1.89 µM; TGI [21]: 4.27 µM; GI50 [22]: 2.1 µM; TGI [22]: 5.23 µM; GI50 [23]: 8.31 µM; TGI [23]: 28.6 µM; GI50 [24]: 2.7 µM; TGI [24]: 8.21 µM; GI50 [25]: 4.4 µM; TGI [25]: > 27.8 µM; GI50 [26]: 3.3 µM; TGI [26]: 18.6 µM; GI50 [27]: 1.86 µM; TGI [27]: 3.85 µM; GI50 [28]: 1.23 µM; TGI [28]: 3.34 µM; GI50 [29]: 2.56 µM; TGI [29]: 10.2 µM
